This note sets out measurements from the Kinase Knowledgebase extract (Sharma et al. 2016).

Where “and” joins values, the source holds several entries; their conditions need not be identical. Equal entries are not always repeated.

For orientation: EC50 means the concentration needed to bring the measured effect to its halfway point. Higher therefore signals lower potency in that assay.

In this experiment the target is EGFR (Human), P00533 [T790M/L858R]. To be noted: nci-h1975.
Chain of EGFR (Human), P00533 [T790M/L858R] (P00533 whole entry T790M/L858R, looked up): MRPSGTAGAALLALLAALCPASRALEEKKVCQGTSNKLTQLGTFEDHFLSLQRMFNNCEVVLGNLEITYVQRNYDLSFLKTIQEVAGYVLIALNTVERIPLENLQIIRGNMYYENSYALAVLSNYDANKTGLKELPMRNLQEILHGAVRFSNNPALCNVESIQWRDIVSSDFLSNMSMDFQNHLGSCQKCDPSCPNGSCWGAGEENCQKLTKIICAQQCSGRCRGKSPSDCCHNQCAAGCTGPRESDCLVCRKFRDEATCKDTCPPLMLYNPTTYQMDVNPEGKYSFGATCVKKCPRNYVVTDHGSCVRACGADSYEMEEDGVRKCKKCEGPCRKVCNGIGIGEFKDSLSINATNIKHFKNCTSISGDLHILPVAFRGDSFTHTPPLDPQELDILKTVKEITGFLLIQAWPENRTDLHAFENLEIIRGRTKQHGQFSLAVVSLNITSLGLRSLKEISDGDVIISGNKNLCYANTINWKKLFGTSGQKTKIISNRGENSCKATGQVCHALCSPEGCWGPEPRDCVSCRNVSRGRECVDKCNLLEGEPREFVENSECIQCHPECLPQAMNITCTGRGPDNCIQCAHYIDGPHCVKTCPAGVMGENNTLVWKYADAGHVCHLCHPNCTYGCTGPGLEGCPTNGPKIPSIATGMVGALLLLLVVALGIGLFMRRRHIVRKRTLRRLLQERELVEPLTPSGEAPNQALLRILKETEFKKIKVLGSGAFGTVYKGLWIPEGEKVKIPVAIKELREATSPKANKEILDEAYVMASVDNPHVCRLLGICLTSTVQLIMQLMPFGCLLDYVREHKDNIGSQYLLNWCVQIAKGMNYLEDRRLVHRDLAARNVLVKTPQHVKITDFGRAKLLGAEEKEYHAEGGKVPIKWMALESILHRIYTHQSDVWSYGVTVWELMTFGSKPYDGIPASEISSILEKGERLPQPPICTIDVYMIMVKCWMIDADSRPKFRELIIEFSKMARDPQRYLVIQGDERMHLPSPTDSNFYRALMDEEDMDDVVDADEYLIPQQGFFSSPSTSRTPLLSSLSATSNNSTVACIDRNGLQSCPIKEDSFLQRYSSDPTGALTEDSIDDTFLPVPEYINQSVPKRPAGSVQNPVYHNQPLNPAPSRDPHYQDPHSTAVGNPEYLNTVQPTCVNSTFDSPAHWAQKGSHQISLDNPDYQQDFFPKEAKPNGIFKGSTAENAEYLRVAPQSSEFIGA
`CC(C)n1nc(N2CC[C@@H](C#N)C2)c2cnc(Nc3ccnc(-c4cnn(S(=O)(=O)C5CC5)c4)n3)cc21` came in with an EC50 of 121 nM. The compound `CC(C)n1nc(N2CC(O)C2)c2cnc(Nc3ccnc(-c4cnn(S(=O)(=O)C5CC5)c4)n3)cc21` returned an EC50 of 1120 nM. For the compound `CCC(C)n1nc(N2CCNC(=O)C2)c2cnc(Nc3ccnc(N4CCC(C)(O)CC4)n3)cc21` (configuration not stated), the 50% effective concentration (EC50) came to 1760 nM. In the case of `CCS(=O)(=O)n1cc(-c2nccc(Nc3cc4c(cn3)c(NC3CCOC3)nn4C(C)C)n2)cn1` (configuration not stated) it was 272 nM; in that of `CC(C)n1nc(N2CCC3(COC3)C2)c2cnc(Nc3ccnc(-c4cnn(S(=O)(=O)C5CC5)c4)n3)cc21`, 431 nM; in that of `CC(C)n1nc(N2CC[S+]([O-])CC2)c2cnc(Nc3ccnc(-c4cnn(S(=O)(=O)C5CC5)c4)n3)cc21`, 835 nM.

Regarding `CC(C)n1nc(N2CC(C(=O)N3CC[C@@H](O)C3)C2)c2cnc(Nc3ccnc(-c4cnn(S(=O)(=O)C5CC5)c4)n3)cc21`, the EC50 was found to be 2520 nM. In the case of `CC(C)n1nc(N[C@H]2CCOC2)c2cnc(Nc3ccnc(-c4cnn(S(=O)(=O)C5CC5)c4)n3)cc21` it was 373 nM. The same measure for `CCC(C)n1nc(N2CC(C(C)O)C2)c2cnc(Nc3ccnc(-c4cnn(S(=O)(=O)C5CC5)c4)n3)cc21` (configuration not stated): 537 nM. As to `CC(C)n1nc(N2CC(C(=O)N3CCOCC3)C2)c2cnc(Nc3ccnc(-c4cnn(S(=O)(=O)C5CC5)c4)n3)cc21`, the EC50 stood at 344 nM. For `CC(C)n1nc(N2CC(C)(O)C2)c2cnc(Nc3ccnc(-c4cnn(S(=O)(=O)C5CC5)c4)n3)cc21`, the EC50 was 289 nM. `CC(n1nc(N2CC3(COC3)C2)c2cnc(Nc3ccnc(N4CCC(C)(O)CC4)n3)cc21)C(F)(F)F` (configuration not stated) yielded an EC50 of 3290 nM.

In turn, `CC(C)n1nc(N2CCC(C(=O)N(C)C)C2)c2cnc(Nc3ccnc(-c4cnn(S(=O)(=O)C5CC5)c4)n3)cc21` (configuration not stated) came in with an EC50 of 163 nM. Compound `CC(C)n1nc(N2CC(F)(F)C2)c2cnc(Nc3ccnc(-c4cnn(S(=O)(=O)C5CC5)c4)n3)cc21` had an EC50 of 312 nM. In turn, `CC(C)n1nc(N2CC(N3CCOCC3)C2)c2cnc(Nc3ccnc(-c4cnn(S(=O)(=O)C5CC5)c4)n3)cc21` yielded an EC50 of 432 nM. On to `CC(C)n1nc(N2CCNC(=O)C2)c2cnc(Nc3ccnc(-c4cnn(S(=O)(=O)C5CC5)c4)n3)cc21`, for which the EC50 stood at 738 nM. The compound `CC(C)n1nc(NC(=O)C(C)(C)O)c2cnc(Nc3ccnc(-c4cnn(S(=O)(=O)C5CC5)c4)n3)cc21` returned an EC50 of 2080 nM. In the case of `CC(C)n1nc(N2CC(CC#N)C2)c2cnc(Nc3ccnc(-c4cnn(S(=O)(=O)C5CC5)c4)n3)cc21` it was 184 nM. For the compound `CC(C)n1nc(N2CC(C(=O)N3CC[C@H](CO)C3)C2)c2cnc(Nc3ccnc(-c4cnn(S(=O)(=O)C5CC5)c4)n3)cc21`, the EC50 is 1160 nM. Consider `CC(C)n1nc(N2CC[C@@H](N)C2=O)c2cnc(Nc3ccnc(N4CCC(C)(O)CC4)n3)cc21`, for which the EC50 is 8120 nM. In the case of `CCC(C)n1nc(N2CC[C@H](C(N)=O)C2)c2cnc(Nc3ccnc(N4CCC(C)(O)CC4)n3)cc21` (some centres not stated) it was 2200 nM; in that of `CCC(C)n1nc(N2CC[C@@H](O)C2)c2cnc(Nc3ccnc(N4CCC(CC#N)(OC)CC4)n3)cc21` (some centres not stated), 1470 nM. In the case of `CC(C)n1nc(N2CCCC2)c2cnc(Nc3ccnc(-c4cnn(CC5CC5)c4)n3)cc21` it was 1060 nM; in that of `CC(C)n1nc(N2CCOCC2)c2cnc(Nc3ccnc(N4CCC(O)C(C)(C)C4)n3)cc21` (configuration not stated), 1410 nM. In the case of `CC[C@@H](C)n1nc(N2CC[C@@H](O)C2)c2cnc(Nc3ccnc(N4CC[C@](C)(C(N)=O)C4)n3)cc21`, the EC50 is 4050 nM. In the case of `CC(C)n1nc(N2CC3CCC(C2)O3)c2cnc(Nc3ccnc(-c4cnn(S(=O)(=O)C5CC5)c4)n3)cc21` it was 1210 nM; in that of `CC(C)n1nc(N2CC(C#N)C2)c2cnc(Nc3ccnc(-c4cnn(S(=O)(=O)C5CC5)c4)n3)cc21`, 144 nM; in that of `CC(C)n1nc(NCC(F)(F)F)c2cnc(Nc3ccnc(-c4cnn(S(=O)(=O)C5CC5)c4)n3)cc21`, more than 10000 nM.

The compound `CC(C)n1nc(N2CCC(C)(C(N)=O)C2)c2cnc(Nc3ccnc(N4CCC(C)(O)CC4)n3)cc21` (configuration not stated) showed an EC50 of 2860 nM. For the compound `CC(C)n1nc(N2CCN=C2O)c2cnc(Nc3ccnc(-c4cnn(S(=O)(=O)C5CC5)c4)n3)cc21`, the EC50 was determined as 237 nM.

Compound `CC(C)n1nc(N2CC[C@H](N)C2=O)c2cnc(Nc3ccnc(N4CCC(C)(O)CC4)n3)cc21` had an EC50 of 9730 nM.

As for `CC(C)n1nc(N2CC[C@H](O)C2)c2cnc(Nc3ccnc(-c4cnn(S(=O)(=O)C5CC5)c4)n3)cc21`, the EC50 came out at 201 nM. Compound `CCS(=O)(=O)n1cc(-c2nccc(Nc3cc4c(cn3)c(N3CC(CO)C3)nn4C(C)C)n2)cn1` displayed an EC50 of 397 nM. `CC[C@@H](C)n1nc(N2CC[C@@H](O)C2)c2cnc(Nc3ccnc(N4CCC5(CC4)CNC(=O)CO5)n3)cc21` had a concentration for a half-maximal effect (EC50) of 9130 nM. In the case of `CCN1CCN(c2nn(C(C)C)c3cc(Nc4ccnc(-c5cnn(S(=O)(=O)C6CC6)c5)n4)ncc23)CC1` it was 1010 nM. In the case of `CCC(C)n1nc(N2CC(C(C)(C)O)C2)c2cnc(Nc3ccnc(N4CCC(O)C(C)(C)C4)n3)cc21` (configuration not stated), the EC50 turned out to be 288 nM. In the case of `CCC(C)n1nc(N2CC(F)(F)C2)c2cnc(Nc3ccnc(N4CCC(C)(O)CC4)n3)cc21` (configuration not stated), the EC50 is 1600 nM. The same measure for `CC(C)n1nc(N2CC(C(=O)N3CC[C@@H](CO)C3)C2)c2cnc(Nc3ccnc(-c4cnn(S(=O)(=O)C5CC5)c4)n3)cc21`: 1830 nM. In turn, `CC(C)n1nc(N2CC[C@H](O)C2=O)c2cnc(Nc3ccnc(-c4cnn(S(=O)(=O)C5CC5)c4)n3)cc21` had an EC50 of 630 nM.

`CC(C)n1nc(N2CCC(O)C2)c2cnc(Nc3ccnc(-c4cnn(S(=O)(=O)C5CC5)c4)n3)cc21` (configuration not stated) returned an EC50 of 201 nM. For the compound `CCC(C)n1nc(N2CCCC2=O)c2cnc(Nc3ccnc(N4CC[C@@H](O)[C@@H](F)C4)n3)cc21` (some centres not stated), the EC50 was found to be 300 nM.

Compound `CC(C)n1nc(NC(C)(C)C)c2cnc(Nc3ccnc(-c4cnn(S(=O)(=O)C5CC5)c4)n3)cc21` gave a half-maximal effective concentration (EC50) of 4620 nM. `CC(n1nc(N2CC[C@@H](O)C2)c2cnc(Nc3ccnc(N4CCC(C)(O)CC4)n3)cc21)C(F)(F)F` (some centres not stated) returned an EC50 of 901 nM.

For the compound `CC(C)n1nc(N2C[C@H](O)[C@@H](F)C2)c2cnc(Nc3ccnc(-c4cnn(S(=O)(=O)C5CC5)c4)n3)cc21`, the EC50 came out at 240 nM.

Turning to `CCC(C)n1nc(N2CC[C@@H](O)C2)c2cnc(Nc3ccnc(N4CC[C@H](O)[C@H](F)C4)n3)cc21` (some centres not stated), the EC50 worked out at 263 nM.

Turning to `CC(C)n1nc(N2CC(C(=O)NCC(F)(F)F)C2)c2cnc(Nc3ccnc(-c4cnn(S(=O)(=O)C5CC5)c4)n3)cc21`, the EC50 was 193 nM. The same measure for `CCC(C)n1nc(N2CCNC2=O)c2cnc(Nc3ccnc(N4CC[C@H](O)[C@H](F)C4)n3)cc21` (some centres not stated): 208 nM.

Consider `CCC(C)n1nc(N2CCN(C(=O)[C@H](C)O)CC2)c2cnc(Nc3ccnc(-c4cnn(S(=O)(=O)C5CC5)c4)n3)cc21` (some centres not stated), for which the EC50 came to 813 nM.

For `CC[C@H](C)n1nc(N2CC3(COC3)C2)c2cnc(Nc3ccnc(N4CC[C@](C)(O)[C@H](F)C4)n3)cc21`, the EC50 was 874 nM and 631 nM. The same measure for `CC(C)n1nc(N2CC(N)CC2=O)c2cnc(Nc3ccnc(N4CCC(C)(O)CC4)n3)cc21` (configuration not stated): more than 10000 nM; for `CC(C)n1nc(N2CC3(C2)C[S+]([O-])C3)c2cnc(Nc3ccnc(N4CCC(C)(O)CC4)n3)cc21`: 3910 nM. For `CC(C)n1nc(N2CC3(COC3)C2)c2cnc(Nc3ccnc(-c4cnn(S(=O)(=O)C5CC5)c4)n3)cc21`, the EC50 was 421 nM. In the case of `CNC(=O)C1CN(c2nn(C(C)C)c3cc(Nc4ccnc(-c5cnn(S(=O)(=O)C6CC6)c5)n4)ncc23)C1`, the EC50 stood at 650 nM. In the case of `CCC(C)n1nc(N2CC(N)C(F)(F)C2)c2cnc(Nc3ccnc(N4CCC(C)(O)CC4)n3)cc21` (configuration not stated) it was 761 nM; in that of `CC[C@@H](C)n1nc(N2CC3(COC3)C2)c2cnc(Nc3ccnc(N4CC[C@](C)(O)[C@H](F)C4)n3)cc21`, 1160 nM and 851 nM; in that of `CC(C)n1nc(N2CC[C@H](CO)C2)c2cnc(Nc3ccnc(-c4cnn(S(=O)(=O)C5CC5)c4)n3)cc21`, 139 nM. Compound `CCC(C)n1nc(N2CC3(COC3)C2)c2cnc(Nc3ccnc(N4CCC(C)(O)CC4)n3)cc21` (configuration not stated) gave an EC50 of 881 nM. Compound `CC(n1nc(N2CC3(COC3)C2)c2cnc(Nc3ccnc(-c4cnn(S(=O)(=O)C5CC5)c4)n3)cc21)C(F)(F)F` (configuration not stated) returned an EC50 of 699 nM. On to `CCS(=O)(=O)n1cc(-c2nccc(Nc3cc4c(cn3)c(NC3COC3)nn4C(C)C)n2)cn1`, for which the EC50 came out at 921 nM. As for `CCC(C)n1nc(N2CC[C@@H](O)C2)c2cnc(Nc3ccnc(N4CCC(C)(O)CC4)n3)cc21` (some centres not stated), the EC50 was determined as 619 nM. `CC1CN(c2nn(C(C)C)c3cc(Nc4ccnc(-c5cnn(S(=O)(=O)C6CC6)c5)n4)ncc23)C(=O)N1` (configuration not stated) had an EC50 of 377 nM. In turn, `CC(C)n1nc(NCC(C)(C)O)c2cnc(Nc3ccnc(-c4cnn(S(=O)(=O)C5CC5)c4)n3)cc21` had an EC50 of 1200 nM. In the case of `CCC(C)n1nc(N2CC3(COC3)C2)c2cnc(Nc3ccnc(-c4cnn(S(=O)(=O)C5CC5)c4)n3)cc21` (configuration not stated), the EC50 amounted to 216 nM. In turn, `CC(C)n1nc(N2CC(C)(CO)C2)c2cnc(Nc3ccnc(-c4cnn(S(=O)(=O)C5CC5)c4)n3)cc21` returned an EC50 of 620 nM. As to `COC1CCN(c2nccc(Nc3cc4c(cn3)c(N)nn4C[C@H]3CC[C@H](N)CC3)n2)CC1`, the EC50 was more than 10000 nM. The same measure for `CC(C)n1nc(N2CC(C(=O)N(C)C)C2)c2cnc(Nc3ccnc(N4CCC(O)C(C)(C)C4)n3)cc21` (configuration not stated): 348 nM; for `CC(C)n1nc(N2CC(CO)C2)c2cnc(Nc3ccnc(-c4cnn(S(=O)(=O)C5CC5)c4)n3)cc21`: 271 nM; for `CC(C)n1nc(N2CCN(C)C2=O)c2cnc(Nc3ccnc(-c4cnn(S(=O)(=O)C5CC5)c4)n3)cc21`: more than 10000 nM. On to `COC1CCN(c2nccc(Nc3cc4c(cn3)c(N3CC5(COC5)C3)nn4C(C)C)n2)CC1`, for which the EC50 turned out to be 388 nM. For `CC[C@H](C)n1nc(N2CC[C@H](O)C2)c2cnc(Nc3ccnc(N4CC[C@](C)(O)[C@H](F)C4)n3)cc21`, the EC50 is 371 nM. In turn, `CC(C)Nc1nn(C(C)C)c2cc(Nc3ccnc(-c4cnn(S(=O)(=O)C5CC5)c4)n3)ncc12` showed a 50% effective concentration (EC50) of 951 nM. The compound `CC(C)n1nc(N(C)CC(O)CO)c2cnc(Nc3ccnc(-c4cnn(S(=O)(=O)C5CC5)c4)n3)cc21` (configuration not stated) came in with an EC50 of 945 nM.
